Source: patent US20090088574A1, “CRYSTAL OF 1,2-DIHYDROPYRIDINE COMPOUND (TYPE IV)” (EISAI R&D MANAGEMENT CO., LTD., priority 2005, published 2009)

What was measured:
AMPA receptor = settings: see Patent Document 1 (WO/JP01/96308); cited from earlier work
[1] = Physical stability in mixing operation in the presence of water or water-ethanol (1:1) mixed solution (powder X-ray diffraction before/after); assay type: physicochemical; settings: mixing in agate mortar at room temperature for a few minutes with dropwise water or water-ethanol (1:1) mixed solution, dried at about 60° C. for 2 to 3 hours
Experimental: Physical Stability in Mixing Operation in the Presence of Water or Water-Ethanol (1:1) Mixed Solution
About 60 to 150 mg of crystals obtained in Reference Example A1 (Anhydrous form II) and crystals obtained in Example 1 (Crystal form IV) were placed in an agate mortar, and the mixing operation was carried out at room temperature for a few minutes while the dropwise addition of water (or water-ethanol (1:1) mixed solution) continues. Subsequently, the crystals were dried at about 60° C. for 2 to 3 hours. The powder X-ray diffraction of the crystals obtained and crystals of before mixing operation were each measured under the following measurement conditions.
D8 DISCOVER with GADDS manufactured by Bruker AXS Ltd.
Tube voltage: 40 kV Tube current: 200 mA Scanning range (2θ): 5 to 40° Collimator: 0.3 mm double slit
The powder X-ray diffraction pattern of Anhydrous form II before and after mixing operation is shown in FIG. 3, and the powder X-ray diffraction pattern of Crystal form IV is shown in FIG. 4. The mixing operation of Anhydrous form II in the presence of water was performed twice.

[2] = Chargeability (static potential of the powder after stirring); assay type: physicochemical; settings: about 1 g stirred for 30 minutes in weighing bottle with fluoroplastic-coated stirring bar
Experimental: About 1 g of respective compounds is weighed into a weighing bottle (diameter of 35 mm). A stirring bar [fluoroplastic (tetrafluoroethylene resin) coating; 20 mm] is placed in the bottle and after the lid is in place, the powders are stirred for 30 minutes. The lid is opened at the same time that stirring is stopped; and the static potential of the powder is measured using a static potential measuring instrument.
STATIRON-DZ3 manufactured by Shishido Electrostatic, Ltd.

Row | SMILES | antagonistic action against AMPA receptor (AMPA receptor) | change of crystal form in mixing operation (physical stability) [1] | static potential of the powder (chargeability) [2]
1 | N#Cc1ccccc1-c1cc(-c2ccccn2)cn(-c2ccccc2)c1=O [compound (1), 3-(2-cyanophenyl)-5-(2-pyridyl)-1-phenyl-1,2-dihydropyridin-2-one] | significant antagonistic action | – | –
2 | N#Cc1ccccc1-c1cc(-c2ccccn2)cn(-c2ccccc2)c1=O [Example 1, 3-(2-Cyanophenyl)-5-(2-pyridyl)-1-phenyl-1,2-dihydopyridin-2-one] | – | do not change their crystal forms | –
3 | N#Cc1ccccc1-c1cc(-c2ccccn2)cn(-c2ccccc2)c1=O [Reference Example A1, 3-(2-cyanophenyl)-5-(2-pyridyl)-1-phenyl-1,2-dihydropyridin-2-one] | – | change their crystal forms | 70-100 V
